# How the values were obtained:
# Test in all cases: relative viability (nuclei count vs DMSO), 5 days (fraction); higher = more cells survive
# [1] = compound: Cn1cncc1[C@@](N)(c1ccc(Cl)cc1)c1ccc2c(c1)c(-c1cccc(Cl)c1)cc(=O)n2C [Tipifarnib] + COc1cc2c(Oc3ccc(NC(=O)C4(C(=O)Nc5ccc(F)cc5)CC4)cc3F)ccnc2cc1OCCCN1CCOCC1 [Foretinib] (partner 0.25 µM)
# Method in brief: (§1)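 The day after seeding in 1536-well plates, lung cancer cell lines were treated by pin tool with a single drug, or with a fixed anchor-drug dose together with five library-drug doses (not always all listed) in √10 steps. After 5 days, a combined fix-and-stain solution (final 0.05% Triton X-100, 1% formaldehyde, 1 ug/ml Hoechst) was added. Nuclei counted on 4× images gave relative viability as treated counts over vehicle counts, reported as the median of duplicate plates.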
# [2] = compound: Cn1cncc1[C@@](N)(c1ccc(Cl)cc1)c1ccc2c(c1)c(-c1cccc(Cl)c1)cc(=O)n2C [Tipifarnib] + CS(=O)(=O)N1CCN(Cc2cc3nc(-c4cccc5[nH]ncc45)nc(N4CCOCC4)c3s2)CC1 [Pictilisib] (partner 1 µM)
# Method in brief: as §1
# [3] = compound: Cn1cncc1[C@@](N)(c1ccc(Cl)cc1)c1ccc2c(c1)c(-c1cccc(Cl)c1)cc(=O)n2C [Tipifarnib] + NC(=O)Nc1cc(-c2cccc(F)c2)sc1C(=O)N[C@H]1CCCNC1 [AZD7762] (partner 0.2 µM)
# Method in brief: as §1
# [4] = compound: Cn1cncc1[C@@](N)(c1ccc(Cl)cc1)c1ccc2c(c1)c(-c1cccc(Cl)c1)cc(=O)n2C [Tipifarnib] + O=C(CCCCCCC(=O)Nc1ccccc1)NO [Vorinostat] (partner 1 µM)
# Method in brief: as §1
Cell Line,relative viability ([1]; first compound 0.01 µM),relative viability ([1]; first compound 0.1 µM),relative viability ([1]; first compound 0.3162 µM),relative viability ([1]; first compound 1 µM),relative viability ([2]; first compound 0.01 µM),relative viability ([2]; first compound 0.1 µM),relative viability ([2]; first compound 0.3162 µM),relative viability ([2]; first compound 1 µM),relative viability ([3]; first compound 0.01 µM),relative viability ([3]; first compound 0.3162 µM),relative viability ([3]; first compound 1 µM),relative viability ([4]; first compound 0.01 µM),relative viability ([4]; first compound 0.03162 µM),relative viability ([4]; first compound 0.1 µM),relative viability ([4]; first compound 0.3162 µM),relative viability ([4]; first compound 1 µM),relative viability ([1]; first compound 0.03162 µM),relative viability ([2]; first compound 0.03162 µM),relative viability ([3]; first compound 0.03162 µM),relative viability ([3]; first compound 0.1 µM)
ABC-1,1.28,0.965,0.762,0.843,0.808,0.623,0.583,0.492,1.04,0.558,0.54,1.16,0.481,0.781,0.593,0.613,,,,
HCC-15,0.967,0.785,0.635,0.595,0.629,0.556,0.426,0.224,1.12,0.799,0.236,0.833,0.701,0.673,0.589,0.53,0.917,0.547,0.998,0.758
NCI-H2170,1.03,1.01,0.99,0.896,0.317,0.295,0.278,0.222,0.98,0.644,0.506,0.831,0.774,0.697,0.637,0.335,1.06,0.291,0.885,0.701
PC-3 [JPC-3],1.06,0.955,0.749,0.6,0.811,0.651,0.44,0.508,0.805,0.519,0.457,0.823,0.674,0.529,0.426,0.386,1.02,0.651,0.714,0.532
NCI-H1993,0.832,0.589,0.605,0.548,0.686,0.861,0.888,0.913,0.765,0.437,0.484,0.819,0.446,0.489,0.468,0.497,0.716,0.812,0.591,0.571
NCI-H358,0.884,0.563,0.433,0.296,0.387,0.362,0.347,0.268,0.563,0.382,0.378,0.638,0.431,0.365,0.309,0.247,0.761,0.367,0.511,0.575
NCI-H1915,1.01,0.606,0.593,0.577,0.581,0.511,0.397,0.31,0.643,0.332,0.319,0.544,0.43,0.373,0.305,0.336,0.816,0.513,0.583,0.398
RERF-LC-KJ,0.917,0.799,0.773,0.393,0.551,0.561,0.347,0.328,1.02,0.656,0.243,0.652,0.652,0.544,0.324,0.224,0.965,0.501,1.22,0.975

# From the supplement of paper PMC10307832
